Test results from ChEMBL document CHEMBL1132843, “A convenient procedure for the synthesis of nonsymmetrical bivalent selective serotonin reuptake inhibitors using polymer-supported reagents” (Bioorg Med Chem Lett, 2000).

Tests used:
[1] = biological target: Sodium-dependent serotonin transporter (Rattus norvegicus, UniProt P31652); experiment: Inhibition of [3H]5-HT uptake into rat synaptosomes by Serotonin transporter; type: functional, subcellular, Brain
[2] = biological target: Monoamine transporters; serotonin & dopamine (Rattus norvegicus) (UniProt P31652+P23977); experiment: Ratio of selective inhibition of dopamine(DA) to serotonin(5-HT) was evaluated; type: protein assay
Chain of Monoamine transporters; serotonin & dopamine (Rattus norvegicus) (P23977 whole entry, looked up): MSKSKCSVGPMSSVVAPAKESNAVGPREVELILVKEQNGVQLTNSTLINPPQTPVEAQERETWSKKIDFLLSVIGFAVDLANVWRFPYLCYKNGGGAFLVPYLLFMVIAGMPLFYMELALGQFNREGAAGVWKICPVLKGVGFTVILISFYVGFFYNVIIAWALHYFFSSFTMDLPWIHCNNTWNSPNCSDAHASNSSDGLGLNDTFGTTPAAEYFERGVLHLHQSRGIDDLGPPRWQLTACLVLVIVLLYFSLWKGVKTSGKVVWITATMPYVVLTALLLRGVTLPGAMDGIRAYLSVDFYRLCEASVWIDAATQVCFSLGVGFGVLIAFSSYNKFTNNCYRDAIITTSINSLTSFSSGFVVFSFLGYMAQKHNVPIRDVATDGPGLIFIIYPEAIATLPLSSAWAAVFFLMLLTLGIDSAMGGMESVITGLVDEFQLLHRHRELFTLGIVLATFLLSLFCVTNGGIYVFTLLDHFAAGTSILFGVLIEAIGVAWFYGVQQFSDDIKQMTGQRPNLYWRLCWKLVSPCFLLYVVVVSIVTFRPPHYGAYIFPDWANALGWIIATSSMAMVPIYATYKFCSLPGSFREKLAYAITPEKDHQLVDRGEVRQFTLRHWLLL
Chain of Monoamine transporters; serotonin & dopamine (Rattus norvegicus) (P31652 whole entry, looked up): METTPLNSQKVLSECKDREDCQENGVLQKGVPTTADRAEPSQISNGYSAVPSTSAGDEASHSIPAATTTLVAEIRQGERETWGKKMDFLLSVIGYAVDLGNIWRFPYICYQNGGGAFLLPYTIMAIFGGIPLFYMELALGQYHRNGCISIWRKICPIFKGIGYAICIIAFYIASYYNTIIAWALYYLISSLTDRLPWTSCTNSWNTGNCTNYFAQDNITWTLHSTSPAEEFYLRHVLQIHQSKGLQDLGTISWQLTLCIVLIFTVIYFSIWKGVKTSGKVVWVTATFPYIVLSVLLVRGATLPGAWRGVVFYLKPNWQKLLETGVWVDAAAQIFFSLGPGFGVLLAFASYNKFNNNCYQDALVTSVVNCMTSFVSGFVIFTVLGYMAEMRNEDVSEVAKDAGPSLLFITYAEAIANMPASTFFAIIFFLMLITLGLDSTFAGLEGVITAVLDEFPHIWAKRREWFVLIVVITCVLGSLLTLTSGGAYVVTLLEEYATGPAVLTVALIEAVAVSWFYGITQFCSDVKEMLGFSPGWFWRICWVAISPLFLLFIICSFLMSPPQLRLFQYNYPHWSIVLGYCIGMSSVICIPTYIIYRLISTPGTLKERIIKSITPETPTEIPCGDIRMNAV

[3] = biological target: Norepinephrine transporter (Rattus norvegicus, UniProt Q9WTR4); experiment: Inhibition of norepinephrine transporter by inhibition of [3H]NE uptake into rat nerve endings (synaptosomes); type: subcellular, Brain
Chain of Norepinephrine transporter (Q9WTR4 whole entry): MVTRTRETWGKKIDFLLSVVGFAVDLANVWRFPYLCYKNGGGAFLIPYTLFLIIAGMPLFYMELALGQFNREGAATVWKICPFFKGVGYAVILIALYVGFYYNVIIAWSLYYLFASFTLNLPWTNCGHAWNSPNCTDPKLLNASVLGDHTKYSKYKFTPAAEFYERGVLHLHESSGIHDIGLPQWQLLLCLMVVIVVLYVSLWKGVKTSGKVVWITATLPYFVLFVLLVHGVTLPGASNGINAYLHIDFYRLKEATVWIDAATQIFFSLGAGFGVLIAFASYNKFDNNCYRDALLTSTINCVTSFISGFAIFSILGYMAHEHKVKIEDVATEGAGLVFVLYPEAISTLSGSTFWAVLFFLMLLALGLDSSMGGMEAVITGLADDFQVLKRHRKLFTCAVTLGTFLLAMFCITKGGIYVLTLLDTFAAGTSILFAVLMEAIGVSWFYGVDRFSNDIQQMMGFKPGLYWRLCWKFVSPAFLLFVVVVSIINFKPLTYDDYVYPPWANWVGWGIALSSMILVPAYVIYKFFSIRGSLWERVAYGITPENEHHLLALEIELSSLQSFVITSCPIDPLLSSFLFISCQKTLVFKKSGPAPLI

[4] = biological target: Sodium-dependent dopamine transporter (Rattus norvegicus, UniProt P23977); experiment: Inhibition of [3H]DA uptake at Dopamine transporter into rat nerve endings (synaptosomes); type: subcellular, Brain
Chain of Sodium-dependent dopamine transporter (P23977 whole entry): as the sequence (P23977 whole entry, looked up) above

Chain of Sodium-dependent serotonin transporter (P31652 whole entry): as the sequence (P31652 whole entry, looked up) above

SMILES | Ki [1] [nM] | Ratio [2] | Ki [3] [nM] | Ki [4] [nM]
CN1CC[C@@H](c2ccc(Cl)cc2)[C@H](C(=O)NCc2ccc(CNC(=O)CCc3ccccc3)cc2)C1 | 67 | > 30 | > 1000 | > 2000
Cc1ccc(C(=O)NCc2ccc(CNC(=O)[C@@H]3CN(C)CC[C@H]3c3ccc(Cl)cc3)cc2)cc1 | 195 | > 36 | > 1000 | > 7000
CN1CC[C@@H](c2ccc(Cl)cc2)[C@H](C(=O)NCc2ccc(CNC(=O)c3ccc(Cl)cc3)cc2)C1 | 84 | 44 | 1540 | 3710
CN1CC[C@@H](c2ccc(Cl)cc2)[C@H](C(=O)NCc2ccc(CNC(=O)c3ccc(C(F)(F)F)cc3)cc2)C1 | 334 | > 12 | 651 | > 4000
CN1CC[C@@H](c2ccc(Cl)cc2)[C@H](C(=O)NCc2ccc(CNC(=O)c3cccc(C(F)(F)F)c3)cc2)C1 | 35 | > 143 | 508 | > 5000
CN1CC[C@@H](c2ccc(Cl)cc2)[C@H](C(=O)NCc2ccc(CNC(=O)[C@@H]3CN(C)CC[C@H]3c3ccc(Cl)cc3)cc2)C1 | 0.32 | > 7000 | 74 | 2270
CN1CC[C@@H](c2ccc(Cl)cc2)[C@H](C(=O)NCc2ccc(CNC(=O)/C=C/c3ccc(Cl)cc3)cc2)C1 | 69 | > 29 | > 2000 | > 2000
COc1ccc(C(=O)NCc2ccc(CNC(=O)[C@@H]3CN(C)CC[C@H]3c3ccc(Cl)cc3)cc2)cc1 | 92 |  |  | 
CN1CC[C@@H](c2ccc(Cl)cc2)[C@H](C(=O)NCc2ccc(CNC(=O)c3ccc(Cl)cc3Cl)cc2)C1 | 139 |  |  | 
CN1CC[C@@H](c2ccc(Cl)cc2)[C@H](C(=O)NCCCCCNC(=O)[C@@H]2CN(C)CC[C@H]2c2ccc(Cl)cc2)C1 | 1.2 | 1630 | 399 | 1960
CN1CC[C@@H](c2ccc(Cl)cc2)[C@H](C(=O)NCc2ccc(CNC(=O)c3cccc(Cl)c3)cc2)C1 | 33 | > 121 | 1040 | > 4000
CN1CC[C@@H](c2ccc(Cl)cc2)[C@H](C(=O)NCc2ccc(CNC(=O)c3ccccc3)cc2)C1 | 30 |  |  | 
